Experiment: Potassium channel opening activity in vitro using LtK cells transfected with Kir6.2/SUR2B exon 17

Row | SMILES | EC50
1 | O=C(Nc1c(C(O)(C(F)(F)F)C(F)(F)F)ccc2ccccc12)c1ccccc1 [N-[2-(2,2,2-Trifluoro-1-hydroxy-1-trifluoromethyl-ethyl)-naphthalen-1-yl]-benzamide] | 44 nM
2 | C/C=C/C(=O)Nc1c(C(O)(C(F)(F)F)C(F)(F)F)ccc2ccccc12 [But-2-enoic acid [2-(2,2,2-trifluoro-1-hydroxy-1-trifluoromethyl-ethyl)-naphthalen-1-yl]-amide] | 72 nM
3 | Cc1cccc(C(=O)Nc2c(C(O)(C(F)(F)F)C(F)(F)F)ccc3ccccc23)c1 [3-Methyl-N-[2-(2,2,2-trifluoro-1-hydroxy-1-trifluoromethyl-ethyl)-naphthalen-1-yl]-benzamide] | 23 nM
4 | CC(C)OC(=O)Nc1c(C(O)(C(F)(F)F)C(F)(F)F)ccc2ccccc12 [[2-(2,2,2-Trifluoro-1-hydroxy-1-trifluoromethyl-ethyl)-naphthalen-1-yl]-carbamic acid isopropyl ester] | 1160 nM
5 | O=C(Nc1c(C(O)(C(F)(F)F)C(F)(F)F)ccc2ccccc12)c1cccc(F)c1 [3-Fluoro-N-[2-(2,2,2-trifluoro-1-hydroxy-1-trifluoromethyl-ethyl)-naphthalen-1-yl]-benzamide] | 44 nM
6 | O=C(CCc1ccccc1)Nc1c(C(O)(C(F)(F)F)C(F)(F)F)ccc2ccccc12 [3-Phenyl-N-[2-(2,2,2-trifluoro-1-hydroxy-1-trifluoromethyl-ethyl)-naphthalen-1-yl]-propionamide] | 1750 nM
7 | CC(C)C(=O)Nc1c(C(O)(C(F)(F)F)C(F)(F)F)ccc2ccccc12 [N-[2-(2,2,2-Trifluoro-1-hydroxy-1-trifluoromethyl-ethyl)-naphthalen-1-yl]-isobutyramide] | 6630 nM
8 | O=C(Nc1c(C(O)(C(F)(F)F)C(F)(F)F)ccc2ccccc12)C1CCC1 [Cyclobutanecarboxylic acid [2-(2,2,2-trifluoro-1-hydroxy-1-trifluoromethyl-ethyl)-naphthalen-1-yl]-amide] | 45 nM
9 | CC(C)CCC(=O)Nc1c(C(O)(C(F)(F)F)C(F)(F)F)ccc2ccccc12 [4-Methyl-pentanoic acid [2-(2,2,2-trifluoro-1-hydroxy-1-trifluoromethyl-ethyl)-naphthalen-1-yl]-amide] | 49 nM
10 | Cc1ccc(C(=O)Nc2c(C(O)(C(F)(F)F)C(F)(F)F)ccc3ccccc23)cc1 [4-Methyl-N-[2-(2,2,2-trifluoro-1-hydroxy-1-trifluoromethyl-ethyl)-naphthalen-1-yl]-benzamide] | 76 nM
